{"source": "patent US20220016079A1", "about": "“COMBINATION TREATMENT OF HIV INFECTIONS” (priority 2018, published 2022)", "assay_type_in_all_cases": "cell-based, human", "key": {"[1]": {"tested_on": "latent HIV in JLat 10.6-GFP, 2D10 and 5A8 cells", "experiment": "HIV reactivation using latent reporter cell lines (GFP expression by flow cytometry)", "source_text": "The experiment analyzed the ability of DEB10-1143 at reactivating latent HIV using three well-characterized latent T cell lines—JLat 10.6-GFP, 2D10 and 5A8 (Jordan A, Bisgrove D, Verdin E (2003) EMBO J 22(8): 1868-1877. doi: 10.1093/emboj/cdg188. PMID: 12682019; Sakane N, Kwon HS, Pagans S, Kaehlcke K, Mizusawa Y, Kamada M, et al. (2011) PLoS Pathog 7(8): e1002184. PMID: 21876670; Pearson R, Kim Y K, Hokello J, Lassen K, Friedman J, Tyagi M, et al. (2008) J Virol 82(24): 12291-12303. PMID: 18829756). These cell lines contain part of the HIV genome and the GFP reporter gene and are unable to produce infective HIV particles. Drug titration and kinetic studies were conducted. Debio-1143 was tested alone or in combination with the current antiretroviral therapy (ART), consisting of 20 μM tenofovir disoproxil fumarate [TDF], 10 μM emtricitabine [FTC] and 1 μM raltegravir [RAL]. ART and DEB10-1143 were added simultaneously to cells.\nMethod: Cells (100,000 cells/100 μL) were treated in triplicate for 0 and 72 h with increasing concentrations of DEB10-1143 (0 to 20.5 μM) used alone or in combination with ART (see above). ART and DEB10-1143 were added simultaneously to cells. Cells were analyzed for GFP expression by flow cytometry at the indicated time points counting all cells per replicate, and reported as % GFP+cells."}, "[2]": {"tested_on": "primary CD4+ T-lymphocytes", "experiment": "Cellular cytotoxicity (LDH assay and CellTiter Glo assay)", "conditions": "even at high concentration (20 μM), 72 h", "method": "(§1) This experiment examined the cellular cytotoxicity of DEB10-1143 alone and DEB10-1143+ART on the human CD4+ T cell line JLat 10.6. DEB10-1143 was tested as well on human primary CD4+ T lymphocytes. Drug titration and kinetic studies were conducted.\n(§2) Method: Cells (100,000 cells/100 μL) were treated in triplicate for 72 h with increasing concentrations of DEB10-1143 (0 to 20 μM) used alone or in combination with ART (20 μM TDF, 10 μM FTC and 1 μM Raltegravir). ART and DEB10-1143 were added simultaneously to cells. Saponin (0.5%) was used as positive control due to its ability to induce cell death.\n(§3) Cellular cytotoxicity was analyzed by Lactate dehydrogenase (LDH) assay and CellTiter Glo assay.\n(§4) LDH assay: LDH is an oxidoreductase enzyme that catalyses the interconversion of pyruvate and lactate. Cells release LDH into the bloodstream after tissue damage or red blood cell hemolysis. […] In this particular assay, LDH reduces NAD to NADH, which is specifically detected by colorimetric (490 nm) assay.\n(§5) CellTiter Glo assay: The CellTiter-Glo® 2.0 Assay determines the number of viable cells in culture by quantifying ATP, which indicates the presence of metabolically active cells. Luminescence readout is directly proportional to the number of viable cells in culture. Data are expressed in luminescence (RLU) in triplicate"}, "[3]": {"tested_on": "CD4+ T cell line JLat 10.6", "experiment": "Cellular cytotoxicity (LDH assay and CellTiter Glo assay)", "conditions": "even at high concentration (20 μM), 72 h", "method": "as §1, §2, §3, §4, §5"}, "[4]": {"tested_on": "HIV-infected resting CD4+ T cells (rCD4)", "experiment": "Lysis of HIV-infected resting CD4+ T cells (rCD4) by CD8+ T cells and NK cells (LDH activity)", "conditions": "0, 1 and 10 μM, mono- or co-cultures of rCD4, CD4+, 24 and 48 h", "method": "It was investigated whether the Debio-1143-induced reversal of HIV-1 latency, by restoring HIV-1 protein production in rCD4, would permit viral peptide exposure with MHC on infected rCD4+ T cells and allow recognition and lysis by CD8+ T cells and/or NK cells.\nMethod: Human CD4+ T cells, CD8+ T cells and NK cells were isolated following manufacturer's instruction (beads coated with specific antibodies) from one blood donor (500 mL). Ninety percent of CD4+ T cells were infected with HIV-1 (JR-CSF) (1 μg of p24), incubated for 4 days to allow establishment of infection, and then treated with ART for 3 days. Suppression of replication was verified by p24 ELISA in supernatants. rCD4 were then isolated following manufacturer's instruction. Infected and ART-treated rCD4 were mixed with uninfected CD4+ T cells, CD8+ T cells and NK cells a 1:1 ratio (100,000 cells) for 24 and 48 in triplicate. Mono-culture of each cell populations were used as controls. DMSO or Debio-1143 (0, 1 and 10 μM) were added to mono- or co-cultures for 24 and 48 h. Cell killing was quantified by LDH activity."}, "[5]": {"tested_on": "latent HIV-1 in rCD4+ cells co-cultured with CD8+ cells", "experiment": "HIV-1 reactivation in ex vivo co-cultures of rCD4+ and CD8+ cells from an ART-treated HIV patient (HIV RNA in supernatant)", "method": "The efficacy of IAPa, ICI or IAPa/ICI combinations in reversing HIV-1 latency was tested in HIV-1 infected rCD4+ cells co-cultured for 48 h with CD8+ cells from the same donor.\nMethod: Blood from one HIV-1-infected patient under ART was collected (500 mL) and CD4+ and CD8+ cells isolated using beads coated with specific antibodies following manufacturer's instruction (MojoSort™ Human Cell Isolation Kits from Biolegend). The CD4+ T cells were re-infected with HIV-1 (JR-CSF) (1 μg of p24), incubated for 3 days to allow establishment of infection, and treated with ART ([…]) for 7 days to ensure presence of enough latent HIV CD4+ cells (rCD4+) in the culture. Upon ART removal, rCD4 were then isolated following manufacturer's instruction (EasySep™ Human Resting CD4+ T Cell Isolation Kit). The isolated rCD4 were mixed with autologous (from the same patient) uninfected CD8+ T cells at a 1:1 ratio (100,000 cells) and incubated in duplicate for 48 h with different IAPa ([…]) or ICI (10 μg/ml) in monotherapy, or the IAPa/ICI combinations. Amounts of virions released from cells were quantified at the indicated time points by quantifying HIV RNA levels (HIV RNA copies/mL) in supernatant of cell culture using one-step reverse transcriptase quantitative real-time PCR (ABI custom TaqMan Assays-by-Design) according to the manufacturer's instructions. Primers were 5-[…]-3 and 5-[…]-3, and MGB probe 5-FAM-[…]-Q-3, where FAM is 6-carboxyfluorescein."}}}
{"molecule": "CN[C@@H](C)C(=O)N[C@H]1CN(C(=O)CC(C)C)CC[C@H]2CC[C@@H](C(=O)NC(c3ccccc3)c3ccccc3)N2C1=O", "note": "[Debio 1143, (5S,8S,10aR)-N-benzhydryl-5-((S)-2-(methylamino)propanamido)-3-(3-methylbutanoyl)-6-oxodecahydropyrrolo[1,2-a][1,5]diazocine-8-carboxamide]", "values": [{"measurement": "degree of HIV reactivation, comparison of cell lines", "setting": "[1]; 2D10 cells compared to the two other cell lines", "result": "shows the best degree of HIV reactivation"}, {"measurement": "influence of ART on the degree of latency reversal", "setting": "[1]; in combination with ART (20 μM TDF, 10 μM FTC, 1 μM RAL), added simultaneously", "result": "does not influence"}, {"measurement": "HIV reactivation (% GFP+ cells)", "setting": "[1]; single agent, 0 to 20.5 μM, 72 h, JLat 10.6-GFP, 2D10 and 5A8 cells", "result": "possesses the capacity of activating latent HIV"}, {"measurement": "cytotoxicity", "setting": "[2]", "result": "no significant cytotoxicity"}, {"measurement": "cytotoxicity", "setting": "[3]", "result": "no significant cytotoxicity"}, {"measurement": "cell killing (LDH activity)", "setting": "[4]", "result": "Low cell death was observed in all mono- and co-cultures except for the rCD4:CD8+ T cells co-culture"}, {"measurement": "latency reversal class (HIV RNA copies/ml in supernatant)", "setting": "[5]; IAPa 1 μM monotherapy (0.1% DMSO, no ICI), 48 h (Table 3)", "result": "3 (Subsequent classes were defined accordingly in steps of 500 RNA copies/ml)"}, {"measurement": "latency reversal class (HIV RNA copies/ml in supernatant)", "setting": "[5]; IAPa 1 μM with Control IgG1, 48 h (Table 3)", "result": "3 (Subsequent classes were defined accordingly in steps of 500 RNA copies/ml)"}, {"measurement": "latency reversal class (HIV RNA copies/ml in supernatant)", "setting": "[5]; IAPa 1 μM with Control IgG2, 48 h (Table 3)", "result": "3 (Subsequent classes were defined accordingly in steps of 500 RNA copies/ml)"}]}
